Measurements reported in article PMC12498411, “Antidepressant-like Properties of a Selenium-Containing Pyridinium Salt Explored through In Vitro, In Vivo, and In Silico Approaches” (ACS Chemical Neuroscience, 2025).

Test system: male Swiss mice
Assay: Tail suspension test (TST)
Type: in vivo, mouse
Method: A behavioral screening was conducted using the three salts to determine their potential antidepressant-like actions (n = 7–9 mice/group).
A dosage of 5 mg/kg (intragastric route, i.g., by gavage) was administered to all groups receiving the salts. […] The TST was conducted 30 min following drug administration, with the OFT being performed 4 min prior to the TST.
Following the selection of the most promising salt during screening (Compound 3B), an analysis of the compound’s time-response curve was conducted in the mouse TST. For this purpose, the animals were divided into five groups: (I) control (water; i.g.), (II) the group receiving compound 3B 15 min prior to TST, (III) the group receiving compound 3B 30 min before TST, (IV) the group receiving compound 3B 60 min before TST, and (V) the group receiving compound 3B 120 min before TST. The dosage of salt was standardized at 5 mg/kg (i.g). OFT was conducted 4 min prior to the TST.
After choosing a suitable preadministration time, the dose–response curve of the compound at this fixed time was analyzed. The animals were categorized into […]: I) a control group (administered water; i.g.) and groups II, III, IV and V) receiving compound 3B at doses of 0.5 mg/kg, 1 mg/kg, 2.5 mg/kg, and 5 mg/kg (i.g.), respectively. […] Thirty minutes postadministration, the animals underwent the TST. Four minutes prior to the TST, they underwent the OFT.
This test aims to assess depressive-like behavior and antidepressant-like action of therapies by measuring immobility. […] The test was conducted using a mouse suspension box made of wood, measuring 50 cm × 21 cm × 21 cm, designed to prevent any visual or physical interaction among the animals. A suspension bar was positioned atop the box, and the mouse’s tail was affixed to the bar using adhesive tape. The test duration was 6 min, during which the animal’s latency to the first immobility episode and the total duration of immobility (sec) were assessed.

[1] = salts 5 mg/kg i.g., fluoxetine 20 mg/kg i.p., 30 min before test

Question: How did the “Minimum effective dose for antidepressant-like action” value (TST, i.g., 30 min) turn out when `Cc1ccc(C(=O)C[n+]2ccccc2C[Se]c2ccccc2)cc1` [Compound 3B, 1-(2-oxo-2-(p-tolyl)ethyl)-2-((phenylselanyl)methyl)pyridin-1-ium bromide] was run?
Answer: Its value is 1 mg/kg.

Question: And the “TST latency time to first immobility episode, screening” value [1]?
Answer: The value was “significantly increased latency time”.

Question: And the “TST total immobility time, screening” value [1]?
Answer: The value was “shorter total immobility times”.

Question: What about the “Cohen-D effect size in TST” value (screening, 5 mg/kg i.g., 30 min) of the same compound?
Answer: The value was > 1.77.
